# Data reported in PubChem BioAssay (NCI).
#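 Following 48 hours of exposure in 96-well plates, responses at five concentrations were used to interpolate endpoints linearly. TGI denotes the concentration required for complete inhibition of growth.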
# Tests used:
# Assay in all cases: DTP human tumour cell line panel, 48 h
# LOX IMVI melanoma = tested on: LOX IMVI melanoma
# MALME-3M melanoma = tested on: MALME-3M melanoma
# SK-OV-3 ovarian = tested on: SK-OV-3 ovarian
# XF 498 CNS = tested on: XF 498 CNS
# A498 renal = tested on: A498 renal
# SK-MEL-2 melanoma = tested on: SK-MEL-2 melanoma
# SW-620 colon = tested on: SW-620 colon
# SR leukemia = tested on: SR leukemia
# KM12 colon = tested on: KM12 colon
# SK-MEL-5 melanoma = tested on: SK-MEL-5 melanoma
# OVCAR-3 ovarian = tested on: OVCAR-3 ovarian
# M14 melanoma = tested on: M14 melanoma
# RXF 393 renal = tested on: RXF 393 renal
# LXFL 529 NSCLC = tested on: LXFL 529 NSCLC
# U251 CNS = tested on: U251 CNS
# DLD-1 colon = tested on: DLD-1 colon
# MDA-N = tested on: MDA-N
# NCI-H23 lung = tested on: NCI-H23 lung
# DMS 273 small cell lung = tested on: DMS 273 small cell lung
# DU-145 prostate = tested on: DU-145 prostate
# M19-MEL melanoma = tested on: M19-MEL melanoma
# SN12C renal = tested on: SN12C renal
# MDA-MB-231 breast = tested on: MDA-MB-231 breast
# MCF7 breast = tested on: MCF7 breast
# NCI-H460 lung = tested on: NCI-H460 lung
# SNB-75 CNS = tested on: SNB-75 CNS
# RPMI-8226 leukemia = tested on: RPMI-8226 leukemia
# SK-MEL-28 melanoma = tested on: SK-MEL-28 melanoma
# SNB-19 CNS = tested on: SNB-19 CNS
# UO-31 renal = tested on: UO-31 renal
# PC-3 prostate = tested on: PC-3 prostate
# DMS 114 small cell lung = tested on: DMS 114 small cell lung
# ACHN renal = tested on: ACHN renal
# HCC-2998 colon = tested on: HCC-2998 colon
# MOLT-4 leukemia = tested on: MOLT-4 leukemia
# HCT-15 colon = tested on: HCT-15 colon
# MDA-MB-435 = tested on: MDA-MB-435
# TK-10 renal = tested on: TK-10 renal
# HCT-116 colon = tested on: HCT-116 colon
# A549 NSCLC = tested on: A549 NSCLC
# T-47D breast = tested on: T-47D breast
# SF-268 CNS = tested on: SF-268 CNS
# IGROV1 ovarian = tested on: IGROV1 ovarian
# CCRF-CEM leukemia = tested on: CCRF-CEM leukemia
# NCI-H522 lung = tested on: NCI-H522 lung
# KM20L2 colon = tested on: KM20L2 colon
# OVCAR-4 ovarian = tested on: OVCAR-4 ovarian
# COLO 205 colon = tested on: COLO 205 colon
# K-562 leukemia = tested on: K-562 leukemia
# EKVX NSCLC = tested on: EKVX NSCLC
# BT-549 breast = tested on: BT-549 breast
# OVCAR-5 ovarian = tested on: OVCAR-5 ovarian
# SF-295 CNS = tested on: SF-295 CNS
# HOP-62 NSCLC = tested on: HOP-62 NSCLC
# SF-539 CNS = tested on: SF-539 CNS
# NCI/ADR-RES ovarian = tested on: NCI/ADR-RES ovarian
# HT29 colon = tested on: HT29 colon
# UACC-257 melanoma = tested on: UACC-257 melanoma
# HL-60(TB) leukemia = tested on: HL-60(TB) leukemia
# NCI-H226 lung = tested on: NCI-H226 lung
# OVCAR-8 ovarian = tested on: OVCAR-8 ovarian
# UACC-62 melanoma = tested on: UACC-62 melanoma
# 786-0 renal = tested on: 786-0 renal
# CAKI-1 renal = tested on: CAKI-1 renal
# SNB-78 CNS = tested on: SNB-78 CNS
# HOP-92 NSCLC = tested on: HOP-92 NSCLC
structure (smiles),measurement,setting,value
COc1ccc2nc(C)cc(NCCCCCCCCCNc3cc(C)nc4ccc(OC)cc34)c2c1,TGI,LOX IMVI melanoma,1.99 µM
same,TGI,MALME-3M melanoma,17.7 µM
same,TGI,SK-OV-3 ovarian,25.7 µM
same,TGI,XF 498 CNS,3.69 µM
same,TGI,A498 renal,43.4 µM
same,TGI,SK-MEL-2 melanoma,10.8 µM
same,TGI,SW-620 colon,2.32 µM
same,TGI,SR leukemia,29.3 µM
same,TGI,KM12 colon,2.74 µM
same,TGI,SK-MEL-5 melanoma,3.11 µM
same,TGI,OVCAR-3 ovarian,2.76 µM
same,TGI,M14 melanoma,5.9 µM
same,TGI,RXF 393 renal,5.96 µM
same,TGI,LXFL 529 NSCLC,2.4 µM
same,TGI,U251 CNS,5.77 µM
same,TGI,DLD-1 colon,6.61 µM
same,TGI,MDA-N,2.83 µM
same,TGI,NCI-H23 lung,6.89 µM
same,TGI,DMS 273 small cell lung,13.4 µM
same,TGI,DU-145 prostate,19.5 µM
same,TGI,M19-MEL melanoma,31.9 µM
same,TGI,SN12C renal,11.4 µM
same,TGI,MDA-MB-231 breast,2.54 µM
same,TGI,MCF7 breast,2.47 µM
same,TGI,NCI-H460 lung,1.77 µM
same,TGI,SNB-75 CNS,12.5 µM
same,TGI,RPMI-8226 leukemia,> 24.7 µM
same,TGI,SK-MEL-28 melanoma,29.9 µM
same,TGI,SNB-19 CNS,10.2 µM
same,TGI,UO-31 renal,28.3 µM
same,TGI,PC-3 prostate,5.01 µM
same,TGI,DMS 114 small cell lung,2.51 µM
same,TGI,ACHN renal,21.2 µM
same,TGI,HCC-2998 colon,2.73 µM
same,TGI,MOLT-4 leukemia,> 34.7 µM
same,TGI,HCT-15 colon,5.32 µM
same,TGI,MDA-MB-435,2.95 µM
same,TGI,TK-10 renal,9.77 µM
same,TGI,HCT-116 colon,1.46 µM
same,TGI,A549 NSCLC,8.3 µM
same,TGI,T-47D breast,3.46 µM
same,TGI,SF-268 CNS,11.3 µM
same,TGI,IGROV1 ovarian,9.1 µM
same,TGI,CCRF-CEM leukemia,11.2 µM
same,TGI,NCI-H522 lung,2.13 µM
same,TGI,KM20L2 colon,6.36 µM
same,TGI,OVCAR-4 ovarian,9.32 µM
same,TGI,COLO 205 colon,7.47 µM
same,TGI,K-562 leukemia,2.93 µM
same,TGI,EKVX NSCLC,7.36 µM
same,TGI,BT-549 breast,21.1 µM
same,TGI,OVCAR-5 ovarian,15.2 µM
same,TGI,SF-295 CNS,2.33 µM
same,TGI,HOP-62 NSCLC,10.6 µM
same,TGI,SF-539 CNS,2.4 µM
same,TGI,NCI/ADR-RES ovarian,34.8 µM
same,TGI,HT29 colon,2.05 µM
same,TGI,UACC-257 melanoma,21.2 µM
same,TGI,HL-60(TB) leukemia,5.25 µM
same,TGI,NCI-H226 lung,27.6 µM
same,TGI,OVCAR-8 ovarian,1.42 µM
same,TGI,UACC-62 melanoma,7.34 µM
same,TGI,786-0 renal,2.31 µM
same,TGI,CAKI-1 renal,18.3 µM
same,TGI,SNB-78 CNS,26.4 µM
same,TGI,HOP-92 NSCLC,5.21 µM
CCOC(=O)C1N(S(=O)(=O)c2ccc(C)cc2)CCC12c1ccccc1NC2c1ccc(OC)c(OC)c1 (stereo unspecified),TGI,LOX IMVI melanoma,> 100 µM
same,TGI,MALME-3M melanoma,> 100 µM
same,TGI,SK-OV-3 ovarian,> 100 µM
same,TGI,XF 498 CNS,> 100 µM
same,TGI,A498 renal,> 100 µM
same,TGI,SW-620 colon,> 100 µM
same,TGI,SR leukemia,> 100 µM
same,TGI,KM12 colon,> 100 µM
same,TGI,SK-MEL-5 melanoma,> 100 µM
same,TGI,OVCAR-3 ovarian,> 100 µM
same,TGI,M14 melanoma,> 100 µM
same,TGI,RXF 393 renal,> 100 µM
same,TGI,LXFL 529 NSCLC,> 100 µM
same,TGI,U251 CNS,> 100 µM
same,TGI,DLD-1 colon,> 100 µM
same,TGI,NCI-H23 lung,> 100 µM
same,TGI,DMS 273 small cell lung,> 100 µM
same,TGI,M19-MEL melanoma,> 100 µM
same,TGI,SN12C renal,> 100 µM
same,TGI,NCI-H460 lung,> 100 µM
same,TGI,SNB-75 CNS,> 100 µM
same,TGI,RPMI-8226 leukemia,> 100 µM
same,TGI,SK-MEL-28 melanoma,> 100 µM
same,TGI,SNB-19 CNS,> 100 µM
same,TGI,UO-31 renal,> 100 µM
same,TGI,DMS 114 small cell lung,> 100 µM
same,TGI,ACHN renal,> 100 µM
same,TGI,HCC-2998 colon,> 100 µM
same,TGI,HCT-15 colon,> 100 µM
same,TGI,TK-10 renal,> 100 µM
same,TGI,HCT-116 colon,> 100 µM
same,TGI,A549 NSCLC,> 100 µM
same,TGI,SF-268 CNS,> 100 µM
same,TGI,IGROV1 ovarian,34 µM
same,TGI,CCRF-CEM leukemia,> 100 µM
same,TGI,NCI-H522 lung,> 100 µM
same,TGI,KM20L2 colon,> 100 µM
same,TGI,OVCAR-4 ovarian,> 100 µM
same,TGI,COLO 205 colon,> 100 µM
same,TGI,K-562 leukemia,> 100 µM
same,TGI,EKVX NSCLC,> 100 µM
same,TGI,OVCAR-5 ovarian,> 100 µM
same,TGI,SF-295 CNS,> 100 µM
same,TGI,HOP-62 NSCLC,> 100 µM
same,TGI,SF-539 CNS,> 100 µM
same,TGI,HT29 colon,> 100 µM
same,TGI,UACC-257 melanoma,> 100 µM
same,TGI,HL-60(TB) leukemia,> 100 µM
same,TGI,NCI-H226 lung,> 100 µM
same,TGI,OVCAR-8 ovarian,> 100 µM
same,TGI,UACC-62 melanoma,> 100 µM
same,TGI,786-0 renal,> 100 µM
same,TGI,CAKI-1 renal,> 100 µM
same,TGI,SNB-78 CNS,> 100 µM
same,TGI,HOP-92 NSCLC,24.4 µM
